Source: patent publication US7846937B2, “Cyclopropanecarboxylate esters of acyclovir” (Eli Lilly and Company, priority 2005, dated 2010)
Where two headings read alike, the source gives them in different places.

Experiment: Hydrolytic stability in buffered aqueous solutions (HPLC)
Format: physicochemical
Settings: 40° C., read-out: t1/2 (hr) at 40° C. (converted)
Description: Hydrolytic stability of valacyclovir and 1-amino-cyclopropanecarboxylic acid 2-(2-amino-6-oxo-1,6-dihydro-purin-9-ylmethoxy)-ethyl ester trifluoroacetic acid salt
Test samples of valacyclovir and 1-amino-cyclopropanecarboxylic acid 2-(2-amino-6-oxo-1,6-dihydro-purin-9-ylmethoxy)-ethyl ester trifluoroacetic acid salt (Example 1) are dissolved in buffered solutions of known pH at a concentration of 100 mcg/mL. Compound samples are prepared in 0.1 N hydrochloric acid for pH 1 and phosphate based buffer for pH2, 4, 6, 8 and 10. Stability is conveniently assessed using a semi-automated HPLC technique. Compound samples are loaded onto an HPLC autosampler incubated at 40° C. Samples are repeatedly injected on the HPLC at specific time intervals. The peak area of the compound samples are monitored by UV detection.
The HPLC system consisted of an Agilent® 1100 autoinjector, pump, degasser and LV detector. A Waters® Atlantis dC-18 column (3 micron, 150×4.6 mm I.D.) is used to separate the degradation products from the compound sample. An isocratic reversed-phase system using ultraviolet detection is used to monitor the peak areas of the compound sample over a 24 hour period. The mobile phase composition is 5% acetonitrile and 95% water with 0.1% trifluoroacetic acid added to the mixture. The flow rate is 1.5 mL/min. The column temperature is 30 degrees Celsius and the injection volume was 10 μL. The UV detector is set at 256 nm and the run time was 9 minutes. Time points are analyzed every 2 hours for each buffer while being incubated at 40 degrees Celsius by the thermostat controlled autosampler.
The peak area of the compound sample is monitored over a 24 hour period at 2 hour intervals. The peak area of the compound sample is plotted versus time for each of the buffers tested. A first order calculation is used to determine the rate constant for each buffer based on the loss of peak area over time. The half-life, in hours, is calculated by dividing 0.693 by the rate constant (k). t1/2 (hr)=0.693/k.

[1] = pH = 1, 0.1 N hydrochloric acid
[2] = pH = 10, phosphate based buffer

| half-life at 100 mcg/mL [1] [h] | half-life at 100 mcg/mL (pH = 2, phosphate based buffer) [h] | half-life at 100 mcg/mL (pH = 4, phosphate based buffer) [h] | half-life at 100 mcg/mL (pH = 6, phosphate based buffer) [h] | half-life at 100 mcg/mL (pH = 8, phosphate based buffer) [h] | half-life at 100 mcg/mL [2] [h] | SMILES |
| --- | --- | --- | --- | --- | --- | --- |
| > 300 | > 300 | > 300 | > 300 | 90.1 | 23.8 | Nc1nc2c(ncn2COCCOC(=O)C2(N)CC2)c(=O)[nH]1.O=C(O)C(F)(F)F [Example 1, 1-amino-cyclopropanecarboxylic acid 2-(2-amino-6-oxo-1,6-dihydro-purin-9-ylmethoxy)-ethyl ester trifluoroacetic acid salt] |
| > 300 | > 300 | > 300 | 69.7 | 7.8 | 6.8 | CC(C)[C@H](N)C(=O)OCCOCn1cnc2c(=O)[nH]c(N)nc21 [valacyclovir, 2(2-amino-1,6-didydro-6-oxo-9H(purin-9-yl)methoxy)ethyl L-valinate] |
